Among the data in ChEMBL document CHEMBL1150097, “Majapolene A, a cytotoxic peroxide, and related sesquiterpenes from the red alga Laurencia majuscula” (1995) are GI50, TGI and CC50 values, retold here.

The term GI50 denotes the concentration that inhibits growth by half. The low end stands for more potent growth inhibition, the high end for less potent growth inhibition. Usually TGI stands for the concentration at which net growth stops. Higher therefore signals lower sensitivity of the cells.

The assay in a line: Cytotoxicity against human NCI60 cells. The class given is functional.

Take `CC1(C)CC(C23C=CC(CO)(CC2)OO3)CCC1Br` (mixture of isomers) [MAJAPOLENE A]: the GI50 is 400 nM and net growth stopped (TGI) at 900 nM. In addition, the CC50 (read-out: LC50 (the source's name)) was determined as 2800 nM.
